From patent US8912186B2, “Allosteric protein kinase modulators” (Universitaet des Saarlandes, priority 2008, dated 2014)

Experiments:
Assay type in all cases: biochemical
[1] = molecular target: PKA (Homo sapiens, UniProt P17612); assay: cell-free kinase activity assay; settings: DMSO control set 100%
[2] = molecular target: PKBβ (Homo sapiens, UniProt P31751); assay: cell-free kinase activity assay; settings: DMSO control set 100%; for remaining activity at 50 µM / percent of catalytic activity of the Kinase in the presence of compound as compared to the solvent control (DMSO): PKBβ: 50 μM compound; for remaining activity at 50 µM / remaining activity at 200 µM: read-out: percent of catalytic activity of the Kinase in the presence of compound as compared to the solvent control (DMSO): PKBβ; for remaining activity at 200 µM: 200 μM compound
Sequence of PKBβ (P31751 whole entry, species assumed): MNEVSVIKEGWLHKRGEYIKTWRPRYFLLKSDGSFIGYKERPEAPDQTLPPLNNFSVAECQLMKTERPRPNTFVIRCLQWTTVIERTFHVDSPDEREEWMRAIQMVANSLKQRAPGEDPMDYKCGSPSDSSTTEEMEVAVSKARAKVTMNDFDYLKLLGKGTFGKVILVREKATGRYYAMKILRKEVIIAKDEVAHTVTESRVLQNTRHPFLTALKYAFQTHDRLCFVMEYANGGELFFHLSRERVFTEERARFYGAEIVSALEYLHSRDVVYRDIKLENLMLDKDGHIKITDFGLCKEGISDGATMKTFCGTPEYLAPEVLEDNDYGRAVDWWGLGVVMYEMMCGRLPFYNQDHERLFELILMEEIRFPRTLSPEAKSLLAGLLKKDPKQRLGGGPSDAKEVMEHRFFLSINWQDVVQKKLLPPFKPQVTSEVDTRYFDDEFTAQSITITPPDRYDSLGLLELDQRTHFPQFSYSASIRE

[3] = molecular target: T1, SGK (Homo sapiens, UniProt O00141); assay: cell-free kinase activity assay; settings: DMSO control set 100%; for remaining activity at 50 µM / remaining activity at 200 µM: read-out: percent of catalytic activity of the Kinase in the presence of compound as compared to the solvent control (DMSO): SGK
T1 sequence (O00141 1-431): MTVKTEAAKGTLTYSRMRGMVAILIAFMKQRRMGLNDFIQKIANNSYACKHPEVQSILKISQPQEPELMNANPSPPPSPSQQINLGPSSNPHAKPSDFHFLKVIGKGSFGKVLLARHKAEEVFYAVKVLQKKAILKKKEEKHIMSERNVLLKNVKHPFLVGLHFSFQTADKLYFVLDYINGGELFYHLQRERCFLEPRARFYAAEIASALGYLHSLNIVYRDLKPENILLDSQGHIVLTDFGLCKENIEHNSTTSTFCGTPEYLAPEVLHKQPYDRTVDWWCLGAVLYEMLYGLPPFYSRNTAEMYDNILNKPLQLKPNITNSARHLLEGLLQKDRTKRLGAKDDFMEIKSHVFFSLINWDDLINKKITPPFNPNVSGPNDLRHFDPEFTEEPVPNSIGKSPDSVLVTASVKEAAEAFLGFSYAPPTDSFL

[4] = molecular target: T2, PDK1 (Homo sapiens, UniProt O15530); assay: cell-free kinase activity assay (ATPgamma[32P], T308tide substrate); settings: for activity at 50 µM: 50 μM compound; for activity at 50 µM / activity at 200 µM: DMSO control set 100%, read-out: percent of catalytic activity of the Kinase in the presence of compound as compared to the solvent control (DMSO): PDK1; for activity at 200 µM: 200 μM compound; for AC50: concentration of the compound required to activate half maximally; for AC50 / max. activation of PDK1 (fold): n.e.: no effect; for max. activation of PDK1 (fold): maximum activation achievable, compared to the basal activity of PDK1
T2 construct: GST
T2 sequence (O15530 1-556): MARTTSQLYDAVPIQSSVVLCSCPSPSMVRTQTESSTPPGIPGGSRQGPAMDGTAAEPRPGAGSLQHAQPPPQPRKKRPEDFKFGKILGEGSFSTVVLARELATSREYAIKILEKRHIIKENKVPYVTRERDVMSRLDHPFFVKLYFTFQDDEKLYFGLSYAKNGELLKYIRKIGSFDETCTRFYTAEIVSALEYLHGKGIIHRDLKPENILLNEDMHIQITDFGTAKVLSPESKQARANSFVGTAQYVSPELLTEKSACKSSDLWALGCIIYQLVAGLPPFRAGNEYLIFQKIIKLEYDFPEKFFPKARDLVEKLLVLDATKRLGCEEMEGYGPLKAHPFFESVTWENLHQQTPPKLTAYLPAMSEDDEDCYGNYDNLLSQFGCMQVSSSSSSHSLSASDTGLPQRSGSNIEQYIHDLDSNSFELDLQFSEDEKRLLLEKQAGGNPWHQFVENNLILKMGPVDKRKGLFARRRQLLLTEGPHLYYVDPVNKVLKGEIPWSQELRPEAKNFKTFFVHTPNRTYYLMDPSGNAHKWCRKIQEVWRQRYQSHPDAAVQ
Description: Principle of the cell-free kinase activity assay: In general, the activity of the compounds as protein kinase inhibitors or activators may be assayed in vitro (cell free assay is meant here), in vivo or in a cell line. In vitro assays include assays that determine inhibition or activation of either the phosphorylation activity or ATPase activity of the activated protein kinase. Alternate in vitro assays quantitate the ability of the inhibitor to bind to the protein kinase. Compound binding may be measured by radiolabelling the compound prior to binding, isolating the inhibitor or activator/protein kinase complex and determining the amount of radiolabel bound. Alternatively, inhibitor or activator binding may be determined by running a competition experiment where new compounds are incubated with the protein kinase bound to known radioligands. Newer methods comprise fluorescence polarisation assays and surface plasmon resonance dependent techniques. […] The activity and modulation of activity is measured using a standard ATPgamma[^32P] assay as described earlier. […] The concentration of T308tide is 1 mM and the amount of PDK1 used is 200 ng. Reactions are carried out at room temperature. Reaction is started by addition of ATP-Mg mix and stopped with phosphoric acid after 30 min. Stopped reactions were spotted on to phosphocellulose paper (P81, Whatman) and washed. After drying, the radioactivity associated to the band was quantified.

[5] = molecular target: S6K (Homo sapiens, UniProt P23443); assay: cell-free kinase activity assay; settings: DMSO control set 100%; for remaining activity at 200 µM / remaining activity at 50 µM: read-out: percent of catalytic activity of the Kinase in the presence of compound as compared to the solvent control (DMSO): S6K
Sequence of S6K (P23443 whole entry): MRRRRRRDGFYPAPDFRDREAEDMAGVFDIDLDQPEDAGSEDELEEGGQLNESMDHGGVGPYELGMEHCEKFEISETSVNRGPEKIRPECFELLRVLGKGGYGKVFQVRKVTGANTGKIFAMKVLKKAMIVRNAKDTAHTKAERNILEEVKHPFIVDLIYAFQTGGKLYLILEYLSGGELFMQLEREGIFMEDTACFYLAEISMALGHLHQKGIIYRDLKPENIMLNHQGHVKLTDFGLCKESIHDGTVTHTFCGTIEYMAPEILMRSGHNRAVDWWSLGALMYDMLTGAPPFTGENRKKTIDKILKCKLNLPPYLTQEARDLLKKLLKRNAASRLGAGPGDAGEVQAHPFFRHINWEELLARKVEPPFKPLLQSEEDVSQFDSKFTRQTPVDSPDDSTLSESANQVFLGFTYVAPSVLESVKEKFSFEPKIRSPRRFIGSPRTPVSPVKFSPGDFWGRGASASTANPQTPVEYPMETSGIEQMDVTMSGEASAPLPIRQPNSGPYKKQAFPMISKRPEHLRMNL

[6] = molecular target: T3, PKCζ (Homo sapiens, UniProt Q05513); assay: cell-free kinase activity assay; settings: DMSO control set 100%; for remaining activity at 200 µM: 200 μM compound; for remaining activity at 200 µM / remaining activity at 50 µM: read-out: percent of catalytic activity of the Kinase in the presence of compound as compared to the solvent control (DMSO): PKCζ
T3 sequence (Q05513 1-592): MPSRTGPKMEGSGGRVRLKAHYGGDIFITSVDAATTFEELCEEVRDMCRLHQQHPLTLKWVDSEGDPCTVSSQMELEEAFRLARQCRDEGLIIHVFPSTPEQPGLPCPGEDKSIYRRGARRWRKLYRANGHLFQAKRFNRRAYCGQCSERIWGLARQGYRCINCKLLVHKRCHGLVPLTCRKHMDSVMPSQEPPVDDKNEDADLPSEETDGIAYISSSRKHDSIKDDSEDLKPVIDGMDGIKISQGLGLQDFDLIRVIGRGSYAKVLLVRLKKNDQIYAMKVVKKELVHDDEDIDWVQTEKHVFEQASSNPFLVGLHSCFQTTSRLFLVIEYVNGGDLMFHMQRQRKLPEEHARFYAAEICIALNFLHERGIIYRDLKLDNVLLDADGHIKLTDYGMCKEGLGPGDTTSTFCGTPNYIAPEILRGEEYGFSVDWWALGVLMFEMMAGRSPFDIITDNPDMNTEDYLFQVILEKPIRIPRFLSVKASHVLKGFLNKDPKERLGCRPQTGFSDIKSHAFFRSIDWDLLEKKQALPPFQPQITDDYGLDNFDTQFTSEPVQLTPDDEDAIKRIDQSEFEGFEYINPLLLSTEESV

[7] = molecular target: PRK2 (Homo sapiens, UniProt Q16513); assay: cell-free kinase activity assay; settings: DMSO control set 100%
Sequence of PRK2 (Q16513 whole entry, species assumed): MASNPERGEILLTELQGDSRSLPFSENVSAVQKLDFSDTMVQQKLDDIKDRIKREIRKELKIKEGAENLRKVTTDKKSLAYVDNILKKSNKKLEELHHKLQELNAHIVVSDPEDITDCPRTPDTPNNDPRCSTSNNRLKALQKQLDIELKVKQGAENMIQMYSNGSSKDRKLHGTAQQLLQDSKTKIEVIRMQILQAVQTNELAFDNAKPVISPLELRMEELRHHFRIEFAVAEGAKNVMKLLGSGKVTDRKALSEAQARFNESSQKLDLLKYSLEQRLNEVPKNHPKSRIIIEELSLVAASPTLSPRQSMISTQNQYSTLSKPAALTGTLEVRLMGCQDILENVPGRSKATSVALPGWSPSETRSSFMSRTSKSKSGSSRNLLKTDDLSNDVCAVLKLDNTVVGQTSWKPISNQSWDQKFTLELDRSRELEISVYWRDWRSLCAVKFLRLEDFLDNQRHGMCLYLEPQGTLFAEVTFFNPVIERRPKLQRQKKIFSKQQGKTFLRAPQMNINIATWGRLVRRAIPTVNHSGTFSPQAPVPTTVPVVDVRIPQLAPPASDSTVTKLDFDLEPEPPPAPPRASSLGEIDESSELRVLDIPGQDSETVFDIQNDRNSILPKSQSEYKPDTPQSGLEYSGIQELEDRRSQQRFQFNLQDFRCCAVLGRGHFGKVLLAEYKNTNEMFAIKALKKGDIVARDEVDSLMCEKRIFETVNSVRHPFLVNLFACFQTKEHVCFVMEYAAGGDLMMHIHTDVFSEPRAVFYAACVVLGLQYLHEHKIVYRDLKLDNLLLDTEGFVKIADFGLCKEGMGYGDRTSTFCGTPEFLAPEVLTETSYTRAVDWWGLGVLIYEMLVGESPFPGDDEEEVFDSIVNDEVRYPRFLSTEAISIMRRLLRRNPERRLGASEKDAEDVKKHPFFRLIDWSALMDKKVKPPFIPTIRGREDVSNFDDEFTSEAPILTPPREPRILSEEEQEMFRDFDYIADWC

Row | percent of catalytic activity of the Kinase in the presence of compound as compared to the solvent control (DMSO): PKA ([1]; 50 μM compound) | percent of catalytic activity of the Kinase in the presence of compound as compared to the solvent control (DMSO): PKA ([1]; 200 μM compound) | remaining activity at 50 µM [2] | remaining activity at 200 µM [2] | percent of catalytic activity of the Kinase in the presence of compound as compared to the solvent control (DMSO): SGK ([3]; 50 μM compound) | percent of catalytic activity of the Kinase in the presence of compound as compared to the solvent control (DMSO): SGK ([3]; 200 μM compound) | activity at 50 µM [4] | activity at 200 µM [4] | percent of catalytic activity of the Kinase in the presence of compound as compared to the solvent control (DMSO): S6K ([5]; 50 μM compound) | remaining activity at 200 µM ([5]; 200 μM compound) | remaining activity at 200 µM [6] | percent of catalytic activity of the Kinase in the presence of compound as compared to the solvent control (DMSO): PRK2 ([7]; 50 μM compound) | percent of catalytic activity of the Kinase in the presence of compound as compared to the solvent control (DMSO): PRK2 ([7]; 200 μM compound) | percent of catalytic activity of the Kinase in the presence of compound as compared to the solvent control (DMSO): PKBβ [2] | remaining activity at 50 µM ([3]; 50 μM compound) | remaining activity at 200 µM ([3]; 200 μM compound) | remaining activity at 50 µM ([6]; 50 μM compound) | AC50 [4] | max. activation of PDK1 (fold) [4] | remaining activity at 50 µM ([5]; 50 μM compound) | SMILES | also measured
1 | no effect | no effect | 85% | 80% | no effect | no effect | 400% | 500% | no effect | 75% | 30% | no effect | no effect |  |  |  |  |  |  |  | O=C(O)CC(Cc1nc2cc(Cl)ccc2[nH]1)c1ccc(Cl)cc1 (stereo not drawn) [PS 114, 4-(5-Chloro-2-benzimidazolyl)-3-(4-chlorophenyl)butanoic acid] | percent of catalytic activity of the Kinase in the presence of compound as compared to the solvent control (DMSO): PKCζ ([6]; 50 μM compound): no effect
2 | no effect |  |  | ~70% |  |  |  | ~120% | no effect | ~80% | 0% |  |  | no effect | ~80% | ~40% | 50% |  |  |  | O=C(O)/C=C(\CCc1ccc(Cl)cc1)c1ccccc1F [PS 145, (E)-5-(4-Chlorophenyl)-3-(2-fluorophenyl)pent-2-enoic acid] | remaining activity at 200 µM ([1]; 200 μM compound, read-out: percent of catalytic activity of the Kinase in the presence of compound as compared to the solvent control (DMSO): PKA): ~60%
3 |  |  | ~80% | ~60% | no effect |  | 150% | 150% |  | 65% | 3% | no effect | no effect |  |  | 60% | 45% | 11.6 µM | 4.1 fold | 90% | O=C(O)/C=C(/CCc1cccc(Cl)c1)c1ccccc1 [PS 87, (Z)-5-(3-Chlorophenyl)-3-phenylpent-2-enoic acid] | 
4 |  |  | 80 to 90% | 60 to 70% |  |  |  | 180% |  | 55% | 2% | no effect |  |  | 112% | 50% | 45% | 30 µM | 1.8 fold | 90% | O=C(O)/C=C1\c2ccccc2CC1Cc1ccc(Cl)cc1 (stereo not drawn) [PS 102] | remaining activity at 200 µM ([7]; 200 μM compound, read-out: percent of catalytic activity of the Kinase in the presence of compound as compared to the solvent control (DMSO): PRK2): 110%
5 | no effect | no effect |  | 70 to 80% | no effect | no effect | 400% | 450% | no effect |  |  | no effect | no effect | no effect |  |  |  | 14.5 µM | 4.1 fold |  | O=C(O)/C=C(/CCc1ccc(Br)cc1)c1ccccc1 [PS-T10, (Z)-5-(4-Bromophenyl)-3-phenylpent-2-enoic acid] | percent of catalytic activity of the Kinase in the presence of compound as compared to the solvent control (DMSO): S6K ([5]; 200 μM compound): no effect
